Assay [1] has as its target GDP-bound KRAS protein (aa 1-169), containing both G12D and C118A amino acid substitutions (Homo sapiens (Human), UniProt P01116, C118A/G12D). The assay is described as follows: KRAS G12D Coupled Nucleotide Exchange Assay. Format: biochemical.
Assay [2] has as its target His-tagged KRAS G12D protein (Homo sapiens (Human), UniProt P01116, G12D). The assay is described as follows: KRAS G12D TR-FRET Assay. Format: binding. The essentials: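 His-tagged KRAS G12D (diluted to 20 nM in pH 7.4 HEPES buffer with 10 mM MgCl2 and 10 μM GDP) was preincubated with titrated compound for 30 min at room temperature. Biotinylated KRPep-2d peptide (diluted to 20 nM) was then added for 1 h, and displacement was monitored by TR-FRET.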
On the technique in general: TR-FRET usually uses a lanthanide donor and a delayed reading to cut background.

For another assay, the system named is AsPC-1 cells. The experiment in a line: AsPC-1 CTG Assay (CellTiter-Glo cell viability). Format: cell-based, human. Particulars: first value of the cell, read-out: G12D/C/V Cell Proliferation CTG (72 h) AsPC-1. As to the method: AsPC-1 and SW620 CTG Assay Protocols
AsPC-1 (human pancreatic adenocarcinoma; ATCC CRL-1682) or SW620 (human colon adenocarcinoma; ATCC CCL-227) cells were cultured in RPMI 1640 medium containing 10% fetal bovine serum and 1× penicillin/streptomycin/L-glutamine. Cells were seeded in 384-well plates at a density of 3.33E+04 cells/mL and incubated at 37° C., 5% CO2, overnight. Serially-diluted compound or DMSO was added to the cells, and plates were incubated at 37° C., 5% CO2 for 72 h. Cell viability was measured using a CellTiter-Glo® Luminescent Cell Viability Assay kit (Promega) according to the manufacturer's protocol. The luminescence signal of treated samples was normalized to DMSO control, and data were analyzed using a 4-parameter logistic model to calculate IC50 values.

Assay [3] has as its system Phosphorylation of ERK1/2 in AsPC-1 cells. The assay is described as follows: Phospho-ERK1/2 MSD Assay. It is filed as cell-based, human. The essentials:
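Read-out: MSD electrochemiluminescent detection of phosphorylated ERK1/2 in whole-cell lysates, fitted to a 4-parameter logistic curve for IC50. Prior to lysis, AsPC-1 cells (25,000 per well) received a 2 h compound dose-response at 37 °C.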

The mark [4] stands for this setting: read-out: KRAS G12D Coupled Exchange IC50.
The mark [5] stands for this setting: read-out: KRAS G12D Binding IC50.
Where [6] appears, read: 2 h, read-out: 2 h p-ERK (AsPC-1 cells), IC50.
Where [7] appears, read: Homo sapiens, ASPC1, 72 h, AsPC-1, 72 h.
Where [8] appears, read: Homo sapiens, ASPC1, 2 h, read-out: 2 h p-ERK (AsPC-1 cells), IC50.
Where [9] appears, read: 2 hours compound pre-incubation, read-out: KRAS G12D Coupled Exchange.
The mark [10] stands for this setting: TR-FRET, read-out: KRAS G12D Binding.
Setting [11] is: Homo sapiens, ASPC1, 72 h, AsPC-1 cells (G12D), 72 h.
The mark [12] stands for this setting: Homo sapiens, ASPC1, 2 h, read-out: 2 h p-ERK (AsPC-1 cells).

Where a name gives a salt, the structure may show the parent alone. Read-outs that look alike come from different tables or passages of the source.

Sequence of GDP-bound KRAS protein (aa 1-169), containing both G12D and C118A amino acid substitutions (P01116 other isoform, or with tags, fused parts or gaps G12D/C118A): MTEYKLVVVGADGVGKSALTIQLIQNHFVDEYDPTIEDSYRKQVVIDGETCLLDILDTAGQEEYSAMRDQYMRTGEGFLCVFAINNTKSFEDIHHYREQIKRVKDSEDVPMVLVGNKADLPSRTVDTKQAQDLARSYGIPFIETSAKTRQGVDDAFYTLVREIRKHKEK
Sequence of His-tagged KRAS G12D protein (P01116 other isoform, or with tags, fused parts or gaps G12D): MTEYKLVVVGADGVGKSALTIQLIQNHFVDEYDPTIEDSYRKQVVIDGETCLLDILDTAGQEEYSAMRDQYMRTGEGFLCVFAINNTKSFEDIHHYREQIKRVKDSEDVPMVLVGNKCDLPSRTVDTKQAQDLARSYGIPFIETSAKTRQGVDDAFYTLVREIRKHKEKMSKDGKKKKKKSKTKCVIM

With `O[C@@H]1C[C@@H]2CN(C1)c1nc(OC[C@@]34CCCN3C[C@H](F)C4)nc3c(F)c(ncc13)-c1c(c(Cl)cc3[nH]ncc13)CCCn1ncc2n1` (single isomer, unassigned) [Example 299], the IC50 in assay [1] (setting [4]) turned out to be 0.021 µM; in assay [2] (setting [5]), 0.03 µM; in the assay on AsPC-1 cells (AsPC-1, 72 h), 5 µM; in assay [3] (setting [6]), 0.467 µM.
For `O[C@@H]1C[C@@H]2CN(C1)c1nc(OC[C@@]34CCCN3C[C@H](F)C4)nc3c(F)c(ncc13)-c1c(c(Cl)cc3[nH]ncc13)CCCn1ncc2n1` (single isomer, unassigned) [Example 300] the same measures were 0.005 µM, 0.01 µM, 0.281 µM and 0.0232 µM.
Regarding `CN(C)CC1(COc2nc3c4cnc(c(F)c4n2)-c2c(c(Cl)cc4[nH]ncc24)CCCOC(=O)O[C@]2(C)COCCN3C2)CC1` (single isomer, unassigned) [Example 331], the IC50 in assay [1] (setting [4]) came out at 0.003 µM; in assay [2] (setting [5]), 0.005 µM; in the assay with AsPC-1 cells (setting [7]) it was 0.115 µM; in assay [3] (setting [8]) it was 0.0154 µM.
As to `Fc1c2ncc3c(nc(OC[C@@]45CCCN4C[C@H](F)C5)nc13)N1CCOC[C@H](Cc3ncc(o3)CCc3c(Cl)cc4[nH]ncc4c3-2)C1` (single isomer, unassigned) [Example 375], the IC50 in assay [1] (setting [9]) came out at 0.015 µM; in assay [2] (setting [10]) it was 0.027 µM; in the assay with AsPC-1 cells (setting [11]), 3.12 µM; in assay [3] (setting [12]) it was 0.673 µM.
For `Fc1c2ncc3c(nc(OC[C@@]45CCCN4C[C@H](F)C5)nc13)N1CCOC[C@@H](Cc3ncc(o3)CCc3c(Cl)cc4[nH]ncc4c3-2)C1` (single isomer, unassigned) [Example 376] the same measures were 0.011 µM, 0.016 µM, 2.06 µM and 0.35 µM.
As to `CN(C)CC1(COc2nc3c4cnc(c(F)c4n2)-c2c(c(Cl)cc4[nH]ncc24)CCCCOCC2(F)CCCCN3C2)CC1` (stereo in doubt) [Example 400, 1-(1-((((26R)-18-chloro-26,32-difluoro-24-oxa-1,3,5,9,14,15-hexaazahexacyclo[24.4.1.1~6,10~.0~2,7~.0~11,19~.0~12,16~]dotriaconta-2,4,6,8,10(32),11,13,16,18-nonaen-4-yl)oxy)methyl)cyclopropyl)-N,N-dimethylmethanamine], the IC50 in assay [1] (setting [9]) was found to be 0.008 µM; in assay [2] (setting [10]), 0.015 µM; with AsPC-1 cells (setting [11]), 0.817 µM; in assay [3] (setting [12]), 0.371 µM.
For `CN(C)CC1(COc2nc3c4cnc(c(F)c4n2)-c2c(c(Cl)cc4[nH]ncc24)CCCCOCC2(F)CCCCN3C2)CC1` (stereo in doubt) [Example 401, 1-(1-((((26S)-18-chloro-26,32-difluoro-24-oxa-1,3,5,9,14,15-hexaazahexacyclo[24.4.1.1~6,10~.0~2,7~.0~11,19~.0~12,16~]dotriaconta-2,4,6,8,10(32),11,13,16,18-nonaen-4-yl)oxy)methyl)cyclopropyl)-N,N-dimethylmethanamine] the same measures were 0.003 µM, 0.005 µM, 0.386 µM and 0.289 µM.
Take `C[C@@]12CCCN(C1)c1nc(OC[C@@]34CCCN3C[C@H](F)C4)nc3c(F)c(ncc13)-c1cccc3ccc(F)c(c13)CC[C@@H](F)C(=O)N2` [Example 2, (15R,18R)-18,22,31-trifluoro-8-(((2R,7aS)-2-fluorotetrahydro-1H-pyrrolo[1,2-a]pyrrol-7a(5H)-yl)methoxy)-15-methyl-3,7,9,11,16-pentaazahexacyclo[19.7.1.1˜2,6˜.1˜11,15˜.0˜5,10˜.0˜25,29˜]hentriaconta-1(28),2(31),3,5,7,9,21,23,25(29),26-decaen-17-one]: the IC50 amounted to 0.024 µM in assay [1] (setting [4]), 0.05 µM in assay [2] (setting [5]), 4.11 µM with AsPC-1 cells (setting [7]) and 1.4 µM in assay [3] (setting [8]).
For `C[C@@]12CCCN(C1)c1nc(OC[C@@]34CCCN3C[C@H](F)C4)nc3c(F)c(ccc13)-c1cc(O)cc3ccc(F)c(c13)CCCC(=O)N2` [Example 16, (15R)-22,31-Difluoro-8-(((2R,7aS)-2-fluorotetrahydro-1H-pyrrolo[1,2-a]pyrrol-7a(5H)-yl)methoxy)-27-hydroxy-15-methyl-7,9,11,16-tetraazahexacyclo[19.7.1.1˜2,6˜.1˜11,15˜.0˜5,10˜.0˜25,29˜]hentriaconta-1(28),2(31),3,5,7,9,21,23,25(29),26-decaen-17-one bis(2,2,2-trifluoroacetate)] the same measures were 0.005 µM, 0.006 µM, 1.2 µM and 0.092 µM.
The like results for `COc1c2ncc3c(nc(OC[C@@]45CCCN4C[C@H](F)C5)nc13)N1CCC[C@](C)(C1)NC(=O)CCCc1c(F)ccc3cc(O)cc-2c13` [Example 19, (15R)-22-Fluoro-8-(((2R,7aS)-2-fluorotetrahydro-1H-pyrrolo[1,2-a]pyrrol-7a(5H)-yl)methoxy)-27-hydroxy-31-methoxy-15-methyl-3,7,9,11,16-pentaazahexacyclo[19.7.1.1˜2,6˜.1˜11,15˜.0˜5,10˜.0˜25,29˜]hentriaconta-1(28),2(31),3,5,7,9,21,23,25(29),26-decaen-17-one] were, in that order, 0.005 µM, 0.007 µM, 5 µM and 1.86 µM.
The like results for `Cc1cc2[nH]ncc2c2c1CCCCC(=O)N[C@]1(C)CCCN(C1)c1nc(OC[C@@]34CCCN3C[C@H](F)C4)nc3c(F)c-2ncc13` [Example 20, (17R)-30-Fluoro-24-(((2R,7aS)-2-fluorotetrahydro-1H-pyrrolo[1,2-a]pyrrol-7a(5H)-yl)methoxy)-9,17-dimethyl-5,6,16,21,23,25,29-heptaazahexacyclo[24.3.1.1˜17,21˜.0˜2,10˜.0˜3,7˜.0˜22,27˜]hentriaconta-1(30),2,4,7,9,22,24,26,28-nonaen-15-one bis(2,2,2-trifluoroacetate)] were, in that order, 0.022 µM, 0.02 µM, 2.22 µM and 0.823 µM.
`C[C@@]12CCCN(C1)c1nc(OC[C@@]34CCCN3C[C@H](F)C4)nc3c(F)c(ncc13)-c1cc(O)cc3c1[C@@H](CCCC(=O)N2)CCC3` [Example 27, (15R,21R)-31-Fluoro-8-(((2R,7aS)-2-fluorotetrahydro-1H-pyrrolo[1,2-a]pyrrol-7a(5H)-yl)methoxy)-27-hydroxy-15-methyl-3,7,9,11,16-pentaazahexacyclo[19.7.1.1˜2,6˜.1˜11,15˜.0˜5,10˜.0˜25,29˜]hentriaconta-1(29),2(31),3,5,7,9,25,27-octaen-17-one 2,2,2-trifluoroacetate salt]: the IC50 in assay [1] (setting [4]) was found to be 0.005 µM; in assay [2] (setting [5]), 0.007 µM; with AsPC-1 cells (setting [7]), 0.661 µM; in assay [3] (setting [8]), 0.18 µM.
For `Cc1cc2[nH]ncc2c2c1CCCCC(=O)O[C@]1(C)CCCN(C1)c1nc(OC[C@@]34CCCN3C[C@H](F)C4)nc3c(F)c-2ncc13` [Example 32, (17R)-30-fluoro-24-(((2R,7aS)-2-fluorotetrahydro-1H-pyrrolo[1,2-a]pyrrol-7a(5H)-yl)methoxy)-9,17-dimethyl-16-oxa-5,6,21,23,25,29-hexaazahexacyclo[24.3.1.1~17,21~.0~2,10~.0~3,7~.0~22,27~]hentriaconta-1(30),2,4,7,9,22,24,26,28-nonaen-15-one] the same measures were 0.003 µM, 0.005 µM, 0.422 µM and 0.043 µM.
Regarding `Cc1cc2[nH]ncc2c2c1CCCCC(=O)O[C@]1(CF)CCCN(C1)c1nc(OC[C@@]34CCCN3C[C@H](F)C4)nc3c(F)c-2ncc13` [Example 33, (17R)-30-fluoro-17-(fluoromethyl)-24-(((2R,7aS)-2-fluorotetrahydro-1H-pyrrolo[1,2-a]pyrrol-7a(5H)-yl)methoxy)-9-methyl-16-oxa-5,6,21,23,25,29-hexaazahexacyclo[24.3.1.1~17,21~.0~2,10~.0~3,7~.0~22,27~]hentriaconta-1(30),2,4,7,9,22,24,26,28-nonaen-15-one], the IC50 in assay [1] (setting [4]) was 0.004 µM; in assay [2] (setting [5]) it was 0.006 µM; in the assay on AsPC-1 cells (setting [7]) it was 0.809 µM; in assay [3] (setting [8]), 0.077 µM.

The values above are taken from patent US20240294551A1 (AMGEN INC., priority 2022, published 2024).
